# Assays:
# Format in all cases: in vivo
# [1] = test system: Male ICR mice; test: Open field test / locomotor activity; conditions: DMG 30 and 100 mg/kg pretreatment 30 min prior to ketamine 30 mg/kg
# Method: To evaluate the effect of DMG on ketamine-induced locomotor hyperactivity, the animals were moved from the home cage, weighed and placed into an activity cage (Columbus Auto-Track System, Version 3.0 A, Columbus Institute, Columbus, Ohio, USA) for 2 hours. Thereafter, the test drug (0, 30, and 100 mg/kg) was given 30 min prior to ketamine (30 mg/kg) or saline. The distance (cm) traveled was recorded for totally 180 min. A 70% alcohol solution was used to clean the inner surface of all the testing apparatus between trials to remove any potentially interfering odors left by the previous mouse.
# [2] = test system: Male ICR mice; test: Novel location recognition test (NLRT); conditions: DMG 100 mg/kg pretreatment, ketamine 30 mg/kg; 30 min after sample phase
# Method: (§1) The novel location recognition test (NLRT) and novel object recognition test (NORT) were examined in a Plexiglas open field box (35×35×30 cm) located in a sound-attenuated room and illuminated with a 20-W light bulb. The novel location and novel object recognition procedure consisted of habituation, training, and retention sessions. Habituation was conducted in two consecutive daily sessions, during which each mouse was allowed to individually explore the box in the absence of objects for 20 min. The animal is then removed from the arena and placed in its home cage. During the sample phase, each animal was placed in the box, and after 5 min, two identical sample objects (A+A) were simultaneously introduced in two corners. Each animal was allowed to explore the objects for 5 min. An animal was considered to explore the object when its head was facing the object at a distance of approximately 1 cm or less between the head and object or when it was touching or sniffing the object. The time spent exploring each object was recorded using stopwatches by an experimenter blind to the treatment condition.
# After the sample phase, the mice were immediately returned to their home cages. […] The animals were allowed to explore the box freely for 5 min, and the time spent exploring each object was recorded as described above. […]
# [3] = test system: Male Sprague-Dawley rats; test: Ketamine intravenous self-administration (IVSA) under progressive ratio (PR) schedule
# Method: The dose-dependent effects of betaine and its metabolite DMG on ketamine addiction were evaluated by the intravenous self-administration (IVSA) paradigm under a progressive ratio (PR) schedule. Animals were implanted indwelling catheters flushing of ketamine (0.5 mg/kg/per infusion), termed the training dose, under a FR1 schedule during daily 3-h sessions. After acquisition of stable responding for ketamine (criterion of less than 20% deviation from the mean of the total number of reinforcers earned in three consecutive sessions for each rat), the ketamine reinforcement schedule was changed to FR2 and maintained until responding stabilized at least for 3 days. Then, the PR schedule was conducted. The lever presses required to gain an infusion was determined by: 5×e^(infusion number×0.2)−5 (i.e., 1, 2, 4, 6, 9, […], 15, 20, 25, 32, etc). […] The dose-dependent effects of betaine of self-administration of various doses of ketamine ([…]) were assessed by pretreatment 30 min prior to their daily operant session using a within-subject Latin square design.
# [4] = test system: Male ICR mice; test: Forced swim test (FST): duration of immobility, struggling and swimming
# [5] = test system: Male ICR mice; test: as above; conditions: DMG 30 mg/kg pretreatment prior to ketamine 10 mg/kg
# Method: FST was conducted for two consecutive days. Mice were placed in a Plexiglas cylinder (33.5 cm height, 20 cm diameter) filled with 25±2° C. water to a height of 18-20 cm. For the first exposure, mice were placed in the water for 15 min (pre-test session) followed by […]. Twenty-four hours later (day 1 test session), various doses of test drug (at 0, 30 and 100 mg/kg) was administered 30 min prior to the ketamine (10 mg/kg) or saline. Then, the mice were tested 30 min after ketamine injection which placed in the water again for a 6 min session (test session), the first 2 minutes has elapsed. Immobility was assigned when no additional activity was observed other than that required to keep the head above the water.
# This experiment included a control group and various doses of ketamine (3, 10, 15 mg/kg), betaine (10, 20, 30 mg/kg) and betaine (10, 20, 30 mg/kg) pretreatment prior to ketamine (fixed dose at 10 mg/kg). […] There was no significant effect of test session or interaction.
# [6] = test system: Male ICR mice; test: Novel object recognition test (NORT); conditions: DMG 100 mg/kg pretreatment, ketamine 30 mg/kg; 24 h after sample phase
# Method: as §1
# After the sample phase, the mice were immediately returned to their home cages. The novel location recognition test was conducted 30 min after the training session. The animals were returned to the same box as during the sample phase, and one of the two objects was replaced with a novel local corner (A+A′) to test the location-based recognition memory. After 24 hours, novel object recognition test was performed. The mice are allowed to explore the open field with one identical sample object and a novel object to assess the novel object recognition memory (A+B). The animals were allowed to explore the box freely for 5 min, and the time spent exploring each object was recorded as described above. The objects and chambers were cleaned with 70% ethanol after each use. A preference index, a ratio of the amount of time spent exploring the original object or the novel location/object over the total time spent exploring both objects, was used to evaluate recognition memory. […]
# [7] = test system: Male ICR mice; test: Loss of righting reflex (LORR); conditions: DMG 100 and 300 mg/kg 30 min prior to ketamine 100 mg/kg
# Method: The test drug betaine (0, 300, and 600 mg/kg) or DMG (0, 100 and 300 mg/kg) was administered 30 min prior to the anesthetic doses of ketamine (100 mg/kg). Then, the mice were placed in a clean cage until the righting reflex was lost. They were then placed in the supine position until recovery and the onset and duration of the loss of righting reflex was recorded. Recovery of the righting reflex was defined as the ability to perform three successive rightings.
# [8] = test system: Male ICR mice; test: Rotarod test (motor coordination); conditions: DMG 30 and 100 mg/kg prior to ketamine 30 mg/kg
# Method: Motor coordination was examined using an automated rotarod device (Singa; Technology Co., Ltd, Taiwan) for a maximum of 6 mice. A computer recorded the latency to fall in seconds. During two-three days training period, the mice were first trained on the rotarod at a constant speed of 20 rotations per minute (rpm) until all of the mice were able to spend at least 3 min on the road. The test drug (0, 30 and 100 mg/kg) was administered 30 min prior to the ketamine (30 mg/kg) or saline injection. Then, the mice were tested 10, 15, 20, 25, and 30 min after ketamine injection.
# [9] = test system: Male ICR mice; test: Prepulse inhibition test (PPI) of acoustic startle; conditions: DMG 100 mg/kg pretreatment, ketamine 30 mg/kg; p<0.001
# Method: The PPI was operated as described in our previous work (Chan et al., 2012a). Briefly, the animals were initially moved from the home cage, weighed, and then placed into the restrainers in the SR-LAB (San Diego Instruments, San Diego, Calif., USA) acoustic startle chambers for 30-min habituation. The test drug (0, 30 and 100 mg/kg) was administered 30 min prior to ketamine (30 mg/kg) or saline injection. After administration of ketamine or saline, the experiment started with a 5-min adaptation period during which the animals were exposed to 67-dB background white noise, and this background noise was continued throughout the session. Then, the following adaptation period startle session began with five initial startle stimuli (120 dB bursts of white noise, 40 ms duration). After the first five initial stimuli, mice received five different trial types: pulse alone trials (120 dB bursts of white noise, 40 ms duration), three prepulse and pulse trials in which 76, 81, or 86 dB white noise bursts (9, 14, and 19 dB above background) of 20 ms duration preceded 120 dB pulse by 100 ms prepulse onset to pulse onset, and no-stimuli trials during which only background noise was applied. Each of these trial types was presented five times in randomized order. The inter trial interval was 7-23 s, and the test lasted 15 min in total. Prepulse inhibition was calculated as the percent inhibition of the startle amplitude evoked by the pulse alone: % PPI=(magnitude on pulse alone trial−magnitude on prepulse+pulse trial/magnitude on pulse alone trial)×100.
compound,measurement,setting,value
"CN(C)CC(=O)O [DMG, N,N-dimethylglycine]",ketamine-induced locomotor hyperactivity,[1],reduced
same,ketamine-induced recognition memory impairment in NLRT,[2],significantly attenuated
same,reduction of cumulative responses by ketamine,"[3]; DMG 100 mg/kg pretreatment, ketamine 0.3 mg/kg/infusion, PR schedule",40%
same,ketamine self-administration under PR schedule,[3]; DMG pretreatment,significantly decreased
same,duration of immobility in FST,"[4]; DMG 10, 20 and 30 mg/kg alone",significantly decreased
same,duration of immobility in FST,"[4]; DMG 10, 20 and 30 mg/kg pretreatment prior to ketamine 10 mg/kg",significantly decreased
same,duration of immobility in FST compared with ketamine (10 mg/kg) alone,[5],significantly shorter duration of immobility
same,ketamine-induced recognition memory impairment in NORT,[6],significantly attenuated
same,duration of ketamine-induced loss of righting reflex,[7],did not affect
same,onset of ketamine-induced loss of righting reflex,[7],did not affect
same,ketamine-induced motor in coordination,[8],significantly reduced
same,ketamine-induced disruption of PPI,[9],significantly attenuated

# — US11213495B2, “Method and composition for decreasing the psychotomimetic side effect and addictive disorder of ketamine” (NATIONAL HEALTH RESEARCH INSTITUTES, priority 2016, dated 2022)
